Consider nine compounds from PubChem BioAssay (NCI).

Test systems include HCT-116 colon; HL-60(TB) leukemia; KM12 colon; MCF7 breast; MDA-MB-435; RPMI-8226 leukemia; SK-MEL-5 melanoma; SR leukemia; SW-620 colon; T-47D breast.
Common to all, as to test: NCI-60 cell line screen, 48 h

Several values for one entry are separate records, joined by “and”; a condition that tells them apart may be missing. Identical values can stand only once.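 Step 1: Grow cells in 96-well plates. Step 2: Expose to compound for 48 hours at 5 concentrations. Step 3: Interpolate endpoints linearly; if unreached, use highest concentration. GI50 marks 50% less growth. Definition used: TGI = concentration required for complete inhibition of growth.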

On to `O=C(O)CS(=O)(=O)C(c1ccccc1)c1ccccc1`, for which the TGI in the assay on HCT-116 colon, with HL-60(TB) leukemia, in the assay on KM12 colon, in the assay on MCF7 breast, in the assay with MDA-MB-435 and in the assay on RPMI-8226 leukemia was greater than 100 µM in each case. In addition, the TGI in the assay with SK-MEL-5 melanoma, in the assay with SR leukemia, in the assay with SW-620 colon and in the assay with T-47D breast was greater than 100 µM in each case.
With `CC12CCC=CC1CCC1C2CCC2(C)C(c3ccc(=O)oc3)CCC12O` (centres undefined), the GI50 in the assay with HCT-116 colon was 0.0396 µM; in the assay on HL-60(TB) leukemia it was 0.0257 µM; in the assay with KM12 colon it was 0.134 µM; with MCF7 breast, 0.0766 µM; in the assay on MDA-MB-435, 0.108 µM; in the assay on RPMI-8226 leukemia it was 0.0994 µM. Further, the GI50 is 0.0453 µM in the assay on SK-MEL-5 melanoma, 0.0311 µM in the assay with SR leukemia, 0.0558 µM with SW-620 colon and 0.181 µM in the assay on T-47D breast. The TGI was found to be 0.389 µM in the assay on HCT-116 colon; 0.0689 µM in the assay on HL-60(TB) leukemia; 1.45 µM with KM12 colon; 1.18 µM with MCF7 breast; 0.528 µM in the assay on MDA-MB-435; 0.777 µM in the assay on RPMI-8226 leukemia. Besides, the TGI with SK-MEL-5 melanoma turned out to be 0.238 µM; with SR leukemia, 0.11 µM; with SW-620 colon, 0.33 µM; in the assay with T-47D breast, 1.05 µM.
As for `O=C(O)CSSCC(=O)O`, the TGI in the assay with HCT-116 colon, with HL-60(TB) leukemia, in the assay with KM12 colon, in the assay with MCF7 breast, in the assay with MDA-MB-435 and with RPMI-8226 leukemia was greater than 100 µM each time. For the same compound, the TGI with SK-MEL-5 melanoma, in the assay on SR leukemia, with SW-620 colon and with T-47D breast was greater than 100 µM throughout.
Consider `O=C(Nc1cccc(Cl)c1)Nc1ncc(CCNc2ncnc3ccsc23)s1`, for which the GI50 is 1.6 µM and 2.35 µM in the assay on HCT-116 colon; 4.93 µM and 3.37 µM in the assay on HL-60(TB) leukemia; 0.12 µM and 0.0657 µM in the assay with KM12 colon; 1.17 µM and 1.31 µM in the assay on MCF7 breast; 1.99 µM and 1.89 µM with MDA-MB-435; 2.98 µM and 1.32 µM in the assay on RPMI-8226 leukemia. Moreover, the GI50 was 1.39 µM and 1.59 µM with SK-MEL-5 melanoma; 14.5 µM and > 10 µM in the assay on SW-620 colon; 2.26 µM and 1.27 µM in the assay with T-47D breast. For the same compound, the TGI in the assay on HCT-116 colon was 16.1 µM and > 10 µM; with HL-60(TB) leukemia it was 28.9 µM and > 10 µM; in the assay on KM12 colon it was greater than 35.3 µM; in the assay with MCF7 breast it was 15 µM and > 10 µM; with MDA-MB-435, 14.2 µM and > 10 µM; in the assay with RPMI-8226 leukemia, 33.5 µM and 5.81 µM. The TGI is 2.83 µM and 4.16 µM in the assay with SK-MEL-5 melanoma; 20.8 µM and > 10 µM in the assay on SR leukemia; 65.3 µM and > 10 µM in the assay with SW-620 colon; 7.5 µM and 5.63 µM in the assay with T-47D breast.
In the case of `O=c1cc(CNc2cc(F)cc(F)c2)c2ccc(I)cc2[nH]1`, the GI50 in the assay on HCT-116 colon was 0.492 µM; with HL-60(TB) leukemia, 0.337 µM; in the assay with KM12 colon, 0.423 µM; in the assay with MCF7 breast it was 0.388 µM; in the assay with MDA-MB-435 it was 0.108 µM; in the assay with RPMI-8226 leukemia it was 0.759 µM. The GI50 with SK-MEL-5 melanoma is 0.641 µM; in the assay on SR leukemia it was 0.129 µM; in the assay with SW-620 colon, 0.384 µM; with T-47D breast, 1.01 µM. Also, the TGI with HCT-116 colon is greater than 100 µM; with HL-60(TB) leukemia, greater than 51.1 µM; in the assay on KM12 colon, greater than 100 µM; with MCF7 breast, greater than 100 µM; with MDA-MB-435, 0.499 µM; in the assay with RPMI-8226 leukemia, greater than 100 µM. Also, the TGI in the assay on SK-MEL-5 melanoma, in the assay on SR leukemia, in the assay with SW-620 colon and in the assay with T-47D breast was greater than 100 µM throughout.
For `Fc1ccc(-c2nc3n(c2-c2ccncc2)CCS3)cc1`, the GI50 in the assay with HCT-116 colon, in the assay on HL-60(TB) leukemia, in the assay on KM12 colon, in the assay with MCF7 breast, in the assay with MDA-MB-435 and in the assay on RPMI-8226 leukemia was greater than 25 µM each time. For the same compound, the GI50 in the assay with SK-MEL-5 melanoma is greater than 18 µM; with SR leukemia it was greater than 25 µM; with SW-620 colon, greater than 25 µM; in the assay on T-47D breast, 13.3 µM. In addition, the TGI in the assay on HCT-116 colon, in the assay with HL-60(TB) leukemia, in the assay with KM12 colon, in the assay with MCF7 breast, in the assay with MDA-MB-435 and in the assay with RPMI-8226 leukemia was greater than 25 µM throughout. Moreover, the TGI with SK-MEL-5 melanoma, in the assay with SR leukemia, with SW-620 colon and with T-47D breast was greater than 25 µM throughout.
As for `Nc1ncnc2c1ccn2C1OC2COP(=O)(O)OC2C1O` (centres undefined), the TGI in the assay on HCT-116 colon is 10.4 µM; in the assay with HL-60(TB) leukemia it was greater than 23.2 µM; in the assay on KM12 colon, 16.5 µM; in the assay with MCF7 breast, greater than 100 µM; with MDA-MB-435, 2.31 µM; with RPMI-8226 leukemia it was greater than 100 µM. Further, the TGI in the assay with SK-MEL-5 melanoma is 1.59 µM; with SR leukemia, 25.6 µM; in the assay on SW-620 colon, greater than 44.5 µM; in the assay with T-47D breast, 55.3 µM.
Take `N#Cc1ncc(/N=C/c2ccc(N(CCCl)CCCl)cc2)s1`: the GI50 in the assay on HCT-116 colon is 30.2 µM; in the assay on HL-60(TB) leukemia, 7.44 µM; in the assay with KM12 colon it was 76.5 µM; with MCF7 breast, 8.85 µM; in the assay on MDA-MB-435, 28.4 µM; in the assay with RPMI-8226 leukemia, 53.7 µM. Moreover, the GI50 was 27.9 µM in the assay on SK-MEL-5 melanoma, 0.543 µM in the assay with SR leukemia, 9.69 µM in the assay on SW-620 colon and 6.71 µM in the assay with T-47D breast. The TGI in the assay with HCT-116 colon, in the assay on HL-60(TB) leukemia, in the assay on KM12 colon, with MCF7 breast, in the assay on MDA-MB-435 and with RPMI-8226 leukemia was greater than 100 µM each time. The TGI with SK-MEL-5 melanoma, in the assay with SR leukemia, in the assay on SW-620 colon and with T-47D breast was greater than 100 µM in each case.
Take `CC(C)(C(=O)NN)c1ccccc1`: the TGI in the assay with HCT-116 colon, in the assay with HL-60(TB) leukemia, in the assay on KM12 colon, in the assay with MCF7 breast, in the assay on MDA-MB-435 and in the assay on RPMI-8226 leukemia was greater than 100 µM throughout. Further, the TGI in the assay with SK-MEL-5 melanoma, in the assay on SR leukemia, in the assay with SW-620 colon and in the assay with T-47D breast was greater than 100 µM each time.
